# Assay results: patent US10092648B2, “Selective glucagon-like-peptide-2 (GLP-2) analogues” (Zealand Pharma A/S, priority 2006, dated 2018)
# Where two headings read alike, the source gives them in different places.
# Columns and labels:
# [1] = target: T1, hGLP-2 receptor (Homo sapiens, UniProt O95838); test: In vitro screening for agonism on the GLP-2 receptor recombinantly expressed in BHK-21 cells (CRE-luciferase reporter); format: cell-based
# T1 construct: expressed in transfected cells; host or cells: BHK-21 (C13) cells, transient transfection with Lipofectamine 2000
# T1 sequence (O95838 1-553): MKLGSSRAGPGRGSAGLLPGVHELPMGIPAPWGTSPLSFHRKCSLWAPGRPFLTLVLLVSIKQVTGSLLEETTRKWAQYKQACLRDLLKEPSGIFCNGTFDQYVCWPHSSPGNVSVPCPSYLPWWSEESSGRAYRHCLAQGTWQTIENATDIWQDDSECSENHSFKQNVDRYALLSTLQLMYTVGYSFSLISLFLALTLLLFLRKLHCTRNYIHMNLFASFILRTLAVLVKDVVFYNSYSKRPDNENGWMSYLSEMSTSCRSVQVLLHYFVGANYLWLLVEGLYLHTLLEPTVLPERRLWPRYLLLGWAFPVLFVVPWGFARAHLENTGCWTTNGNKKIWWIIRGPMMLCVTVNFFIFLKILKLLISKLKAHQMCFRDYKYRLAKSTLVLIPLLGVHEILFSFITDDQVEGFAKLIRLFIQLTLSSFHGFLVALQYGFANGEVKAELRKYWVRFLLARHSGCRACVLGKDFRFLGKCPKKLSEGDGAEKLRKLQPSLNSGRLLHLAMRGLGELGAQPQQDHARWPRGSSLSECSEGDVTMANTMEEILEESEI
# Protocol: The screening was done using BHK21 cells transiently transfected with GLP-2 receptor and the CRE-luciferase reporter gene construct. Dose-response curves and EC50 values were determined using seven concentrations from 10 fM to 10 nM and triplicate points for each concentration. Control peptide was used on all test plates. BHK-21 cells are seeded in 10 cm TC-Petri dishes and grown to 70-80% confluency. Subsequently, medium is changed to serum-free transfection medium. DNA (7.5 μg hGLP-2 receptor vector and 7.5 μg CRE-luciferase vector) and Lipofectamine 2000 are diluted in OptiMEM, combined, and added to the cells after 20-30 min. Cells are incubated in the incubator at 37° C., 5% CO2 for 4 hr, trypsinized, and reseeded at 35,000 cells per well in 96-well plates. Cells are incubated overnight in full growth medium in order to allow expression of the transgenes. […] Baseline activity is controled with stimulation buffer alone. These solutions are pre-warmed to 37° C. for 30 min. Cells are rinsed with pre-warmed (37° C.) stimulation buffer, and incubated with 100 μl of the pre-warmed peptide dilutions and control for 5 hr at 37° C., 5% CO2. The LucLite enzyme substrate/lysis buffer is prepared shortly before the end of the incubation. 100 μl LucLite substrate are added to each well, and light emission is counted on a suitable counter (e.g. Wallac VictorII). EC50 values are derived from the raw data by fitting with a four parameter logistic equation (Microcal Origin 5.0 or GraphPad 4).
# [2] = test system: male C57BL mice; test: In vivo stimulation of intestinal growth, 800 nmol/kg (Example 10); set-up: key to Small intestine-colon sensitivity index: (SI/Colon) of compound divided by (SI/Colon) of reference GLP-2; details: 800 nmol/kg s.c. once daily for 3 days; for Sensitivity index Si/Colon / Sensitivity index Stomach/Co: relative to 1559; for Colon: colon mass relative to BW, % vs. [Gly2]GLP-2; for SI (% vs. [Gly2]GLP-2: small intestine mass relative to BW, [Gly2]GLP-2 = 100%
# Source text: Individual groups (n=6-10) of mice were given 800 nmol/kg of each compound, s.c, once daily for three consecutive days. For comparison purposes other groups of animals were given either an equimolar dose of [[…]]GLP-2 (ZP1559) or vehicle (phosphate buffered saline, pH 7.4) in the same dosing regimen Twenty-four hours after the last dose of compound had been given the mice were sacrificed and the small intestine (from the pylorus to the cecum) and the colon (intestine distal to cecum) was emptied and weighed. To correct for slight difference in body weight (BW), the organ mass of the small intestine (SI) and colon were expressed relative to BW. The non-selective reference compound [[…]]GLP-2 has been reported to stimulate gastrointestinal growth in both esophagus, stomach, small intestine and colon and to evaluate differences in growth pattern induced by compounds, the small intestine-colon sensitivity index of compound X was calculated as: […]
# [3] = test system: male C57BL mice; test: In vivo stimulation of intestinal growth, 200 nmol/kg (Example 11)
# Protocol: The ability of further compounds to selectively stimulate small intestinal mass, relative to colon mass was determined in male C57BL mice. A similar protocol was used to that described above in Example 10 except that 200 nmol/kg of each compound was administered per day. Thus, individual groups (n=6-10) of mice were given 200 nmol/kg of each compound, s.c, once daily for three consecutive days. Other groups of animals were given either an equimolar dose of [[…]]GLP-2 (reference compound) or vehicle (phosphate buffered saline, pH 7.4; negative controls) in the same dosing regimen. Twenty-four hours after the last dose of compound the mice were sacrificed and the stomach, small intestine and the colon emptied and weighed.
# [4] = test system: male C57BL mice; test: In vivo stimulation of stomach growth, 200 nmol/kg (Example 12)
# Protocol: The effects of the test compounds according to the invention were determined based on the ability of the peptides to selectively increase stomach mass, relative to vehicle control. The ability of the present compounds (ZP2395, ZP2396, ZP2400, ZP2412, ZP2394 and ZP2401) to selectively stimulate stomach mass, relative to colon mass was determined in male C57BL mice. Individual groups (n=6-10) of mice were given 200 nmol/kg of each compound, s.c, once daily for three consecutive days. For comparison purposes other groups of animals were given either an equimolar dose of [[…]]GLP-2 or vehicle (phosphate buffered saline, pH 7.4) in the same dosing regimen. Twenty-four hours after the last dose of compound had been given the mice were sacrificed and the stomach and small intestine (from the pylorus to the ileocaecal junction) emptied and weighed. To correct for slight difference in body weight (BW), the organ mass of the stomach is presented relative to BW. […] To evaluate the differential growth pattern induced by ZP compounds, compared to [[…]]GLP-2, on the stomach, the stomach-colon sensitivity index of compound X was calculated as: (Stomach/Colon)x/Stomach/(Colon)[[…]]GLP-2% Compounds with a stomach/colon sensitivity greater than or equal to 1.05 were considered relatively selective for the stomach.
# [5] = amino acid side-chain; defined by W. D. Stein 1967; cited from earlier work
# [6] = BHK21 cells transiently transfected with GLP-2 receptor and CRE-luciferase, 10 fM to 10 nM, read-out: pEC50 (converted)
molecule,measurement,setting,value
H-HGEGSFSDELATILEALAASDFISWLISTKITD-NH2 [ZP2268],EC50,[1],0.00617 nM
same,"Colon-BW, compared to 1559 in %",[2],112.5%
same,Preferential stimulation of epithelial growth in the small intestine (summary),[2],preferentially stimulating epithelial growth in the small intestine
same,"SI-BW, compared to 1559 in %",[2],123.6%
same,"Sto-BW, compared to 1559 in %",[2],87.4%
same,Small intestine-colon sensitivity index,[2]; (SI/Colon)x/(SI/Colon)[Gly2]GLP-2,1.10 ± 0.03
same,Sensitivity index Si/Colon,[2],1.10
same,Sensitivity index Stomach/Co,[2],0.78
same,Colon,[2],112 ± 4 %
same,SI (% vs. [Gly2]GLP-2,[2],124 ± 3 %
same,"Colon-BW, compared to 1559 in %","[3]; colon weight relative to body weight, relative to ZP1559",112.5%
same,Sensitivity index Si/Co,[3]; ratio SI-BW / Colon-BW,1.10
same,"SI-BW, compared to 1559 in %","[3]; small intestine weight relative to body weight, relative to ZP1559",123.6%
same,Sensitivity index Stomach/Co,[4]; ratio Stomach-BW / Colon-BW,0.78
same,"Stomach-BW, compared to 1559 in %","[4]; stomach weight relative to body weight, relative to ZP1559",87.4%
CC(C)[C@H](N)C(=O)O [Val],HBP for the individual amino acids,[5],0
H-HGEGSFSDELNTILESLAASDFISWLISTKITD-NH2 [ZP2270],EC50,[1],0.0589 nM
N[C@@H](CCC(=O)O)C(=O)O [Glu],HBP for the individual amino acids,[5],3
NC(=O)CC[C@H](N)C(=O)O [Gln],HBP for the individual amino acids,[5],3
O=C(O)[C@@H]1CCCN1 [Pro],HBP for the individual amino acids,[5],0
N[C@@H](Cc1ccccc1)C(=O)O [Phe],HBP for the individual amino acids,[5],0
N=C(N)NCCC[C@H](N)C(=O)O [Arg],HBP for the individual amino acids,[5],3
N[C@@H](CO)C(=O)O [Ser],HBP for the individual amino acids,[5],2
C[C@H](N)C(=O)O [Ala],HBP for the individual amino acids,[5],0
C[C@@H](O)[C@H](N)C(=O)O [Thr],HBP for the individual amino acids,[5],2
H-HGEGSFSDELETILEELAAEDFIEWLIETKITD-NH2 [ZP2266],EC50,[1]; [6],0.558 nM
same,"Colon-BW, compared to 1559 in %",[2],100.6%
same,"Organ selectivity (FIG. 8, unselective compounds)",[2],"unselective for the small intestine, colon or stomach"
same,"SI-BW, compared to 1559 in %",[2],95.3%
same,"Sto-BW, compared to 1559 in %",[2],93.6%
same,Sensitivity index Si/Colon,[2],0.95
same,Sensitivity index Stomach/Co,[2],0.93
same,Colon,[2],101 ± 2%
same,SI (% vs. [Gly2]GLP-2,[2],95 ± 1%
N[C@@H](CC(=O)O)C(=O)O [Asp],HBP for the individual amino acids,[5],3
N[C@@H](Cc1ccc(O)cc1)C(=O)O [Tyr],HBP for the individual amino acids,[5],2
H-HGEGSFSDELSTILESLAASDFISWLISTKITD-NH2 [ZP2263],EC50,[1]; [6],0.0145 nM
